In test [1] the target is T1, SIRT-2 (Homo sapiens, UniProt Q8IXJ6).
T1 sequence (Q8IXJ6 1-389): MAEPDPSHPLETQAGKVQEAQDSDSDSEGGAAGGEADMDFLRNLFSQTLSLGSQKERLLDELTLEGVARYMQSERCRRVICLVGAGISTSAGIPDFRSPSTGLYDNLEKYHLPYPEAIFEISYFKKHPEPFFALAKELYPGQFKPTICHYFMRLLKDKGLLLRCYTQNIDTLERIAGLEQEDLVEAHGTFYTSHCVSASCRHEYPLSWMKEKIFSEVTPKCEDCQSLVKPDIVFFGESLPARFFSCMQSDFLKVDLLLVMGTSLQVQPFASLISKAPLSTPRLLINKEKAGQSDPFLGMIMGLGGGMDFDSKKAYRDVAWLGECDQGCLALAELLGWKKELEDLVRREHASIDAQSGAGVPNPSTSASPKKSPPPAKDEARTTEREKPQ
Kind of test: Inhibition of sirtuins, SIRT-2. The class given is biochemical. The settings on record: Table 3 SIRT. The source says:
Inhibition of Sirtuins, Matrix Metalloproteinase, Bromodomains was Also Confirmed Using Standard Protocols and the Results are Present in Table 2.

Test [2] concerns the target T2, c-Kit(Y823D) (Homo sapiens, UniProt P10721, Y823D).
T2 construct: made in house
The test is described as follows: Kinase competition binding assay, c-Kit(Y823D). The settings on record: Table 1 kinase panel. As for the experimental part:
(§1) Cannabis flavonoids and their analogs were subjected to kinase inhibition assay. The compounds were first screened at a single concentration of 10 μM in the primary assay. […]. To determine the kd or IC50 values, competition binding assays were established, authenticated and executed as described previously. Fabian et al., “A Small Molecule-Kinase Interaction Map For Clinical Kinase Inhibitors.”, Nat Biotechnol, 23(3):329-36, Epub (2005). See also, Karaman et al., “A Quantitative Analysis Of Kinase Inhibitor Selectivity”, Nat. Biotechnol. […] For most assays, kinases were fused to T7 phage strains (Fabian, supra) and for the other assays, kinases were produced in HEK-293 cells after which they were tagged with DNA for quantitative PCR detection. In general, full-length constructs were used for small, single domain kinases, and catalytic domain constructs for large multi-domain kinases. The binding assays utilized streptavidin-coated magnetic beads treated with biotinylated small molecule ligands for 30 minutes at room temperature which generated affinity resins for the kinase assays. The liganded beads were blocked with excess biotin and washed with blocking buffer (SeaBlock (Pierce), 1% BSA, 0.05% Tween 20, 1 mM DTT) to remove unbound ligand and to reduce non-specific phage binding. […] Test compounds were prepared as 40× stocks in 100% DMSO and diluted directly into the assay (Final DMSO concentration=2.5%). All reactions were performed in polypropylene 384-well plates in a final volume of 0.04 ml. […] The beads were then re-suspended in elution buffer (1×PBS, 0.05% Tween 20, 0.5 μM non-biotinylated affinity ligand) and incubated at room temperature with shaking for 30 minutes. The kinase concentration in the eluates was measured by quantitative PCR. An illustration of the kinase interaction process is presented below. Kd/IC50 values were determined using a standard dose response curve using the hill equation. Curves were fitted using a non-linear least square fit with the Levenberg-Marquardt algorithm.
(§2) The compound(s) were screened at 10 μM and results for primary screen binding interactions are reported as ‘% Ctrl’, where lower numbers indicate stronger hits in the matrix.

In test [3] the target is T3, RIOK1 (Homo sapiens, UniProt Q9BRS2).
T3 construct: T7 phage fusion (most assays) or DNA tag for qPCR (HEK-293-made kinases); made in house
T3 sequence (Q9BRS2 1-568): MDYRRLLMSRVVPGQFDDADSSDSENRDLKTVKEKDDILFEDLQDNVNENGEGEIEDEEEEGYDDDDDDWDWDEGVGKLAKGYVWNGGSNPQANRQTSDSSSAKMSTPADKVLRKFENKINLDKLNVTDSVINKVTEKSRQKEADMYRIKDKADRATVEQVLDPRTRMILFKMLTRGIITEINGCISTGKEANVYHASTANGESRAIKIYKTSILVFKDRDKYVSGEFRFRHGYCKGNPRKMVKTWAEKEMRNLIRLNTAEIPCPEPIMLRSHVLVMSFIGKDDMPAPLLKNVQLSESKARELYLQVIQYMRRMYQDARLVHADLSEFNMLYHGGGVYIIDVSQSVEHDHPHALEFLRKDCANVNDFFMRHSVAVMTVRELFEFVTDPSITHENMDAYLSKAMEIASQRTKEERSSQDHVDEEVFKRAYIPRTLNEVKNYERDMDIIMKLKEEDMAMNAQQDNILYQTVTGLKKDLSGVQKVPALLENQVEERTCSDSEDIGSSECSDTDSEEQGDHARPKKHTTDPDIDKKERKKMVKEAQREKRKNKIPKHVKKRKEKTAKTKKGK
The test is described as follows: Kinase competition binding assay, RIOK1. The settings on record: Table 1 kinase panel. The method, then: as §1, §2

Test [4] concerns the target T4, PIK4CB (Homo sapiens, UniProt Q9UBF8).
T4 construct: T7 phage fusion (most assays) or DNA tag for qPCR (HEK-293-made kinases); made in house
Kind of test: Kinase competition binding assay, PIK4CB. The settings on record: Table 1 kinase panel. The method, then:
as §1, §2

The target in test [5] is T5, FLT3(D835V) (Homo sapiens, UniProt P36888, D835V).
T5 construct: made in house
T5 sequence (P36888 27-993 D835V): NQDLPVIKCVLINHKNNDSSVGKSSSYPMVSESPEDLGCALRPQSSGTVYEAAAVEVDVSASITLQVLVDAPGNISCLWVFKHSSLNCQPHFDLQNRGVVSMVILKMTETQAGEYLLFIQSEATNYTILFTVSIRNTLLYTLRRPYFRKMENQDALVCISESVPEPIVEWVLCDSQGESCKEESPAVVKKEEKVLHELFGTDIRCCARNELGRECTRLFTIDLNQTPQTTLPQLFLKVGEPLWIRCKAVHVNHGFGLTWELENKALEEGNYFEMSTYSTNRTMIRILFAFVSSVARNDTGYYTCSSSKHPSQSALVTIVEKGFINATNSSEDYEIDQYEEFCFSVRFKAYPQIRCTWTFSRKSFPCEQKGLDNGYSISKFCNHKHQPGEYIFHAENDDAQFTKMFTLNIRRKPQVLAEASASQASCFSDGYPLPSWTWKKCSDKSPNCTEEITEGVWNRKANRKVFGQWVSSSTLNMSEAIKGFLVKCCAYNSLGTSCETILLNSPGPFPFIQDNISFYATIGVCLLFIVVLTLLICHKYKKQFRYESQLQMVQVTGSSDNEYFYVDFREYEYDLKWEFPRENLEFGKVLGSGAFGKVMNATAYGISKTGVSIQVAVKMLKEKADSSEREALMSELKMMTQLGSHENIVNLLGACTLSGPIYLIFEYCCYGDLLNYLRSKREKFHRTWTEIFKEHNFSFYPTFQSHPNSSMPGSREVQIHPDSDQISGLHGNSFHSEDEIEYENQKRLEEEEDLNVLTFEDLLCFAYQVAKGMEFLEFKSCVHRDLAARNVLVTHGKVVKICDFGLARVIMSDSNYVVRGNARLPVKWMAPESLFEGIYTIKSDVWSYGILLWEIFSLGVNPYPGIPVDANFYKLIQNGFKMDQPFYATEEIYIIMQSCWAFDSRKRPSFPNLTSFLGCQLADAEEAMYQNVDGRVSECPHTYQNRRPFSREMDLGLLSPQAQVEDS
Kind of test: Kinase competition binding assay, FLT3(D835V). The settings on record: Table 1 kinase panel. As for the experimental part: as §1, §2

The structures appear in SMILES notation.

T2 sequence (P10721 26-976 Y823D): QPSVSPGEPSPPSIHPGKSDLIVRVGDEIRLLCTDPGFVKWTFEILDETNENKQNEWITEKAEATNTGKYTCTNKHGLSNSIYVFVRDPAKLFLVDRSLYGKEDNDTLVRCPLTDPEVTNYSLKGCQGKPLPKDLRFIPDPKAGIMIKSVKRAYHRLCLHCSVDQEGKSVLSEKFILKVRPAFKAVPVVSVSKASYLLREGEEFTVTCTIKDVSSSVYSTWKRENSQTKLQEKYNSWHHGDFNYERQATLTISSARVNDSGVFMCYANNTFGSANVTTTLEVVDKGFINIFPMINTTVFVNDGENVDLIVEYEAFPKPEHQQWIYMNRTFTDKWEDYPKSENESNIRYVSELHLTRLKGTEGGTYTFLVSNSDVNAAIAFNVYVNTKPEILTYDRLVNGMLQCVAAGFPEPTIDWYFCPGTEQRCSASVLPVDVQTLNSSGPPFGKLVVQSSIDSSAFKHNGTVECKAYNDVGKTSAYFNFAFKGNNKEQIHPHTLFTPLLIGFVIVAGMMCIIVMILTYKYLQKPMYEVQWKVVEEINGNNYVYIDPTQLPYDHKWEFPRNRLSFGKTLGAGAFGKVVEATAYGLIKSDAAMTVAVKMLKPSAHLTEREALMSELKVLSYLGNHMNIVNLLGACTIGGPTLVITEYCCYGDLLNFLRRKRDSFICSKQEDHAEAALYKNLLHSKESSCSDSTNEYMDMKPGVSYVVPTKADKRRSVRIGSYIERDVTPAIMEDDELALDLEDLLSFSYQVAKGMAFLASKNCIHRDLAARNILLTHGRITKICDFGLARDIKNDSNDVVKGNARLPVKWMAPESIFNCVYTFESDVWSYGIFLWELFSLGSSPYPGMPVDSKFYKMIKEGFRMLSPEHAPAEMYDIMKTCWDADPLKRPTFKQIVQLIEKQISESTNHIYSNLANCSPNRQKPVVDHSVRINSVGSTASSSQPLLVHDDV
T4 sequence (Q9UBF8 whole entry, the tested form may be a part): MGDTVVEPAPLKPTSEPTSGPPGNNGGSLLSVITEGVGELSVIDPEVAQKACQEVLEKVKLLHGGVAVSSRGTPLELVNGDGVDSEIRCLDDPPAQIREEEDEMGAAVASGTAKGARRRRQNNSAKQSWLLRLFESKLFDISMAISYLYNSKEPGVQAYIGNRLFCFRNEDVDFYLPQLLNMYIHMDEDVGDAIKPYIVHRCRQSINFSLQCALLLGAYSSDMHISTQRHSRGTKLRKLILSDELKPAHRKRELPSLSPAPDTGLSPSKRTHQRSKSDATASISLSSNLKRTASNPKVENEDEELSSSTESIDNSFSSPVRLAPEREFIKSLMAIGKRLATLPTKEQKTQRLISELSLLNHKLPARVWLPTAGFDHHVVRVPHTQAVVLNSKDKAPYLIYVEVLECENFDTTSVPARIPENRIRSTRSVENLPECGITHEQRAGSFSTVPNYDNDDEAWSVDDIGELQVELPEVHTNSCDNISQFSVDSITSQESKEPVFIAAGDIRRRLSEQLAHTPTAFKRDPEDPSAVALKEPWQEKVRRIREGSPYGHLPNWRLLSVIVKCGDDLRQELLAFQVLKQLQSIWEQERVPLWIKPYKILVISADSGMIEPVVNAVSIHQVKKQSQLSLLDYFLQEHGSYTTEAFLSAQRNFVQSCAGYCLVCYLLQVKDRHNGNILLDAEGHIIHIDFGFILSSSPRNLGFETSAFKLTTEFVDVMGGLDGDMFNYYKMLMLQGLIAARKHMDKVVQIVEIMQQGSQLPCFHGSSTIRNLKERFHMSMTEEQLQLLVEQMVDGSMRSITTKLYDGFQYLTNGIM

A word on the IC50: it is the concentration that inhibits the measured activity by half. In the case of `COc1cc(-c2cc(=O)c3c(O)cc(O)c(C/C=C(\C)CCC=C(C)C)c3o2)ccc1O` [FBL-03C], the IC50 was 14 µM in test [1]; over 20000 nM in test [2]; 340 nM in test [3]; over 1000 nM in test [4]; 190 nM in test [5].
The like results for `COc1ccc(-c2cc(=O)c3c(O)c(C/C=C(\C)CCC=C(C)C)c(O)cc3o2)cc1OC` [FBL-03D] were, in that order, 2.38 µM, over 30000 nM, over 30000 nM, over 30000 nM and over 30000 nM.
Consider `COc1cc(-c2cc(=O)c3c(O)cc(O)c(CC=C(C)C)c3o2)ccc1O` [FBL-03G], for which the IC50 in test [1] is 24.1 µM; in test [2], 84 nM; in test [3] it was over 20000 nM; in test [4], over 20000 nM; in test [5], under 1000 nM.
Consider `COc1cc(-c2cc(=O)c3c(O)c(C/C=C(\C)CCC=C(C)C)c(O)cc3o2)ccc1O` [FBL-03A], for which the IC50 was 2.57 µM in test [1]; over 20000 nM in test [2]; over 20000 nM in test [3]; 670 nM in test [4]; 220 nM in test [5].
`COc1cc(-c2cc(=O)c3c(O)c(CC=C(C)C)c(O)cc3o2)ccc1O` [FBL-03B]: the 50% inhibitory concentration (IC50) in test [1] was 10.8 µM; in test [2] it was 244 nM; in test [3], over 10000 nM; in test [5], under 1000 nM.
